In ChEMBL document CHEMBL3525949, “Role of organic anion-transporting polypeptides for cellular mesalazine (5-aminosalicylic acid) uptake” (Drug Metab Dispos, 2011):

How the values were obtained:
Format in all cases: ADME, cell-based
OATP1B1 = molecular target: T1, OATP1B1 (Homo sapiens, UniProt Q9Y6L6); test: Drug uptake in human OATP1B1 expressed HEK293 cells at 20 uM relative to control cells; conditions: HEK293 cells expressing human OATP1B1, read-out: FC
T1 sequence (Q9Y6L6 whole entry): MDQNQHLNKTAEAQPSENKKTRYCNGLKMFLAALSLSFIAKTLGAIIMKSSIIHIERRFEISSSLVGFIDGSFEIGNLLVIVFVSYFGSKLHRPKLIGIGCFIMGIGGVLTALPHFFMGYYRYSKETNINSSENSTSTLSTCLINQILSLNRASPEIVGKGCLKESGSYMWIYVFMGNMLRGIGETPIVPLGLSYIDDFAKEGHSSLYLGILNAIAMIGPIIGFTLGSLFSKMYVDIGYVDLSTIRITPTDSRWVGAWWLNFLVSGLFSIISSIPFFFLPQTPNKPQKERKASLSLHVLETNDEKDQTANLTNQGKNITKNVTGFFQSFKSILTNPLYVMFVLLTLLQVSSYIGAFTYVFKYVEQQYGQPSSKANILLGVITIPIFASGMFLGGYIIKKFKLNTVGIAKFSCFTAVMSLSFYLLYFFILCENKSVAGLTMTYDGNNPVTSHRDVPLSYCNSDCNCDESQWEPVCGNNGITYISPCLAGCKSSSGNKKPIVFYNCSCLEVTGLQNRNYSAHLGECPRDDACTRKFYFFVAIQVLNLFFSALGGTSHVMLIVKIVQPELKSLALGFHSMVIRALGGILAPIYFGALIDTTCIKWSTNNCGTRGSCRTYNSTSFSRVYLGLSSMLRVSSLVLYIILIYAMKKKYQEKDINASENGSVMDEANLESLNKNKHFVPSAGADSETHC

OATP2B1 = molecular target: T2, OATP2B1 (Homo sapiens, UniProt O94956); test: Drug uptake in human OATP2B1 expressed HEK293 cells at 20 uM relative to control cells; conditions: HEK293 cells expressing human OATP2B1, read-out: FC
T2 sequence (O94956 whole entry): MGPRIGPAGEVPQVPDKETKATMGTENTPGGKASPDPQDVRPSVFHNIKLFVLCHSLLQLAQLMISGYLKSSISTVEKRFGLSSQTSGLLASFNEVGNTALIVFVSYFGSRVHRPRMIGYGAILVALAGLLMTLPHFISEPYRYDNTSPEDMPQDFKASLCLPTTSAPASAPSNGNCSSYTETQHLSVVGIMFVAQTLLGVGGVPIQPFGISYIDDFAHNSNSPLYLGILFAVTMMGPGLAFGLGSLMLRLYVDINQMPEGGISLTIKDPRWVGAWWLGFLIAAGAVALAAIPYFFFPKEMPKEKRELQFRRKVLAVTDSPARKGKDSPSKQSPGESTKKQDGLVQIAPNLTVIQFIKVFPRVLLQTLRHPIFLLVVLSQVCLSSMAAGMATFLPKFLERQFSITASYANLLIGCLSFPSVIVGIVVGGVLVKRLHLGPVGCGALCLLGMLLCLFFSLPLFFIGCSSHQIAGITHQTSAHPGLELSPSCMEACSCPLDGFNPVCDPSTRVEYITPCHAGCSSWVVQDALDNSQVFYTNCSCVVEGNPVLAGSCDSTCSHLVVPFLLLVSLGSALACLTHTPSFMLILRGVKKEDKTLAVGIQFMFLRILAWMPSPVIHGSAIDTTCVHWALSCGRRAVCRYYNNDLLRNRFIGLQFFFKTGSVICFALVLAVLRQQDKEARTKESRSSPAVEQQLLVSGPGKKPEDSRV

SCLO1B1*15 mutant = test: Drug uptake in human SCLO1B1*15 mutant expressed HEK293 cells assessed as net uptake; conditions: HEK293 cells expressing human SCLO1B1*15 mutant
[1] = Drug uptake in human SCLO1B1*5 mutant expressed HEK293 cells assessed as net uptake measured per mg of protein
[2] = molecular target: T3, Solute carrier organic anion transporter family member 1B3 (Homo sapiens, UniProt Q9NPD5); test: Inhibition of human OATP1B3 expressed HEK293 cells assessed as inhibition of [3H]sulfobromophthalein uptake by liquid scintillation counting
T3 sequence (Q9NPD5 whole entry): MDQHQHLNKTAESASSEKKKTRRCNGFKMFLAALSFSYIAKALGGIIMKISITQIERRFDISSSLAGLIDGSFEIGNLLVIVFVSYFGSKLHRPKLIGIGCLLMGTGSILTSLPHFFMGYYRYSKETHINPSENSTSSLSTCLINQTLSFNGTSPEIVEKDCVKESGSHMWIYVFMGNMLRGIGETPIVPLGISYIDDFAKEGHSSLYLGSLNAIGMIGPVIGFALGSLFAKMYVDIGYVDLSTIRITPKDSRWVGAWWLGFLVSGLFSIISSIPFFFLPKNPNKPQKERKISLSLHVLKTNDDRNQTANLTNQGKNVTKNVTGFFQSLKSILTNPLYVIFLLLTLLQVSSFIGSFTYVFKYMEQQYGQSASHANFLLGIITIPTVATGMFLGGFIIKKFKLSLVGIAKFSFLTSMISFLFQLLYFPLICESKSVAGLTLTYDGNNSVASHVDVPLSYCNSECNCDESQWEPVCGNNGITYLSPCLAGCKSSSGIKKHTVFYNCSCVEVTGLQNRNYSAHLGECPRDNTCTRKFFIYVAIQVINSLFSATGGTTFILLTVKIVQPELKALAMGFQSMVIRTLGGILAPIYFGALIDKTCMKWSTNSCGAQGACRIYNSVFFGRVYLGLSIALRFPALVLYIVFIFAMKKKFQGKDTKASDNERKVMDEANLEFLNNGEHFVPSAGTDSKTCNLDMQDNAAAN

[3] = molecular target: T3, Solute carrier organic anion transporter family member 1B3; test: Drug uptake in human OATP1B3 expressed HEK293 cells assessed as net uptake measured per mg of protein
OATP1B3 [4] = molecular target: T4, OATP1B3 (Homo sapiens, UniProt Q9NPD5); test: Drug uptake in human OATP1B3 expressed HEK293 cells at 20 uM relative to control cells; conditions: HEK293 cells expressing human OATP1B3, read-out: FC
T4 sequence (Q9NPD5 whole entry): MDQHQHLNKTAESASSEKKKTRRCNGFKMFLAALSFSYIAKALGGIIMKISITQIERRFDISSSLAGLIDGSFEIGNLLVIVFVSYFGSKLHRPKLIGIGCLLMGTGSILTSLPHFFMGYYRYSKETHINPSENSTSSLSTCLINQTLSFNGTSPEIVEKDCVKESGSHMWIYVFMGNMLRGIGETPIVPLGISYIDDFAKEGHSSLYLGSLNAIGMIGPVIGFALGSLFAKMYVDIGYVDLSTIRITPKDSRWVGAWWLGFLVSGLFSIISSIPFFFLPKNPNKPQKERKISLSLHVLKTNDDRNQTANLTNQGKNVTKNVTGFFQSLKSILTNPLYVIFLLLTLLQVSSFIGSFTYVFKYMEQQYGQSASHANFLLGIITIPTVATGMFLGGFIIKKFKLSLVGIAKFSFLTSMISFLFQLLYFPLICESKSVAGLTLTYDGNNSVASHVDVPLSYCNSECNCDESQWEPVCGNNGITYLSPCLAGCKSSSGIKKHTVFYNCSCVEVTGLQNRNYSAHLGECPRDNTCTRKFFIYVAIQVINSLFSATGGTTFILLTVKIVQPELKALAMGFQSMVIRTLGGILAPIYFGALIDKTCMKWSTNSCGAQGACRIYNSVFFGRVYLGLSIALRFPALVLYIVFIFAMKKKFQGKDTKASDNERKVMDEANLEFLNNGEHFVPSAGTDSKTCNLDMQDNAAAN

[5] = Drug uptake in human SCLO1B1*1b mutant expressed HEK293 cells assessed as net uptake measured per mg of protein
[6] = molecular target: T5, Solute carrier organic anion transporter family member 1B1 (Homo sapiens, UniProt Q9Y6L6); test: Inhibition of human OATP1B1 expressed HEK293 cells assessed as inhibition of [3H]sulfobromophthalein uptake by liquid scintillation counting
T5 sequence (Q9Y6L6 whole entry): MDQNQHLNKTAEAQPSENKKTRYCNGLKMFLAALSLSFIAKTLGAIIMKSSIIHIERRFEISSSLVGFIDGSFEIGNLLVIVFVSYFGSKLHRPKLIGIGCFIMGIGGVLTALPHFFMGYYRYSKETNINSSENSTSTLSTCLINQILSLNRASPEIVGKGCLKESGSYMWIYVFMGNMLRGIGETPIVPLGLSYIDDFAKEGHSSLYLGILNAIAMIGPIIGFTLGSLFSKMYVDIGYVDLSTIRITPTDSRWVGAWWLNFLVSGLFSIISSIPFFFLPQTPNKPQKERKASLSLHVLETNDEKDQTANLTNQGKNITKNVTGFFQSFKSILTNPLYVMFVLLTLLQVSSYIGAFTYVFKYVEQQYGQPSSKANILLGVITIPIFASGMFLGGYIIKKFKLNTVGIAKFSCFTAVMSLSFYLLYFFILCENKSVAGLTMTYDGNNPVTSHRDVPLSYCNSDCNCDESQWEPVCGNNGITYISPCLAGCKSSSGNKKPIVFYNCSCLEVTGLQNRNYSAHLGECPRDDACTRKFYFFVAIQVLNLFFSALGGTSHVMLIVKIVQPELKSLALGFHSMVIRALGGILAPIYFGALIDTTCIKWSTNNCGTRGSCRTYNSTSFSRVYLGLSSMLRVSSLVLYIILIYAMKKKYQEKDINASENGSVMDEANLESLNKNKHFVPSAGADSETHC

SCLO1B1*1a mutant = test: Drug uptake in human SCLO1B1*1a mutant expressed HEK293 cells assessed as net uptake; conditions: HEK293 cells expressing human SCLO1B1*1a mutant
SCLO1B1*5 mutant = test: Drug uptake in human SCLO1B1*5 mutant expressed HEK293 cells assessed as net uptake; conditions: HEK293 cells expressing human SCLO1B1*5 mutant
SCLO1B1*1b mutant = test: Drug uptake in human SCLO1B1*1b mutant expressed HEK293 cells assessed as net uptake; conditions: HEK293 cells expressing human SCLO1B1*1b mutant
[7] = Drug uptake in human SCLO1B1*1a mutant expressed HEK293 cells assessed as net uptake measured per mg of protein
[8] = molecular target: T6, Solute carrier organic anion transporter family member 1A2 (Homo sapiens, UniProt P46721); test: Inhibition of human OATP1A2 expressed HEK293 cells assessed as inhibition of [3H]sulfobromophthalein uptake by liquid scintillation counting
T6 sequence (P46721 whole entry): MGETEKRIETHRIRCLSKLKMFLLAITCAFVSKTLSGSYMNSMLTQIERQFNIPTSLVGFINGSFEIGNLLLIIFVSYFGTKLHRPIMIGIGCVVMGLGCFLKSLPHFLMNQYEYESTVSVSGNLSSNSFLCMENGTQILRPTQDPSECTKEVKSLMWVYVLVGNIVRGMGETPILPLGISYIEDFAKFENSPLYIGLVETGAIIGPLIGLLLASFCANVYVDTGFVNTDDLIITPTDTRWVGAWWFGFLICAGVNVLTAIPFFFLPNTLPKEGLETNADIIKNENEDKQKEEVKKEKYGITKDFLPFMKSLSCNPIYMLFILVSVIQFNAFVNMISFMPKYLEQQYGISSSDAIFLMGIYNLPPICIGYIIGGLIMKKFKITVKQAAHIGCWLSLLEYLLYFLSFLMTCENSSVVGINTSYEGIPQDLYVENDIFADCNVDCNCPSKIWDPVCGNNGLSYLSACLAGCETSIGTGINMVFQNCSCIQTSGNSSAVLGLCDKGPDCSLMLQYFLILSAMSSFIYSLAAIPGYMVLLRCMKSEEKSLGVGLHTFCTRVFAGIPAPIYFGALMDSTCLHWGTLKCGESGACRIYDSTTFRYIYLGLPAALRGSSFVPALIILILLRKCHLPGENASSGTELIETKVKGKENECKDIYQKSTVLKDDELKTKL

[9] = molecular target: T7, Solute carrier organic anion transporter family member 2B1 (Homo sapiens, UniProt O94956); test: Inhibition of human OATP2B1 expressed HEK293 cells assessed as inhibition of [3H]sulfobromophthalein uptake by liquid scintillation counting
T7 sequence (O94956 whole entry): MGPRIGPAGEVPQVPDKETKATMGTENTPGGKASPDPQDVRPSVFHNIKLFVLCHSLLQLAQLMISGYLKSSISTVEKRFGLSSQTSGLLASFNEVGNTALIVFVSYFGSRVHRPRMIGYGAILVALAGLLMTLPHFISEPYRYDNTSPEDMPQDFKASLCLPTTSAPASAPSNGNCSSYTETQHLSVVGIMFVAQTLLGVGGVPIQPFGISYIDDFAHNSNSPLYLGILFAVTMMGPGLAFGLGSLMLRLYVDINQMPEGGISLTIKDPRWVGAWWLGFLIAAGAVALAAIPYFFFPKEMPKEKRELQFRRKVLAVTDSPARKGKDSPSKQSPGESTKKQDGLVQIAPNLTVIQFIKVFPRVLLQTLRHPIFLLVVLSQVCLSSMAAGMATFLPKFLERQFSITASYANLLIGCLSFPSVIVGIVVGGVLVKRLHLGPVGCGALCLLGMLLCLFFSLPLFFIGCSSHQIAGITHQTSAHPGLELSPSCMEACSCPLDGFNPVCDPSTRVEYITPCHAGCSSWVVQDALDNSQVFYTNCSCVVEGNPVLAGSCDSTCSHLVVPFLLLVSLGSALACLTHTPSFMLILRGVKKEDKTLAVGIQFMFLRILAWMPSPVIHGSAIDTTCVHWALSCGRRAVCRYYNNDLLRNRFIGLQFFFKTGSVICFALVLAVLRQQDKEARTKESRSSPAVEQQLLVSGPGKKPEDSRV

[10] = Drug uptake in human SCLO1B1*15 mutant expressed HEK293 cells assessed as net uptake measured per mg of protein
OATP1B3 [11] = molecular target: T4, OATP1B3; test: Drug uptake in human OATP1B3 expressed HEK293 cells assessed as net uptake; conditions: HEK293 cells expressing human OATP1B3

uptake ratio at 20 µM (OATP1B1): 2.7
uptake ratio at 20 µM (OATP2B1): 2
Km (SCLO1B1*15 mutant): 32.4 µM
Vmax [1]: 6.1 pmol/min
inhibition (INH) [2]: Dose-dependent effect
Vmax [3]: 85.1 pmol/min
uptake ratio at 20 µM (OATP1B3 [4]): 2.9
Vmax [5]: 3.8 pmol/min
inhibition (INH) [6]: Dose-dependent effect
Km (SCLO1B1*1a mutant): 55.1 µM
Km (SCLO1B1*5 mutant): 24.3 µM
Km (SCLO1B1*1b mutant): 16.3 µM
Vmax [7]: 28.3 pmol/min
inhibition (INH) [8]: Dose-dependent effect
inhibition (INH) [9]: Dose-dependent effect
Vmax [10]: 9.3 pmol/min
Km (OATP1B3 [11]): 77.4 µM
Structure (SMILES): Nc1ccc(O)c(C(=O)O)c1 [MESALAMINE]
